Laboratory results: patent publication US20260262643A1, “HERBICIDAL BENZOXAZINES” (FMC CORPORATION, priority 2022, published 2026)

How the values were obtained:
corn [1] = assay: Test A postemergence; assay type: in vivo, Zea mays; settings: postemergence, 10 days, 0 to 100 scale (0 no effect, 100 complete control); for Plant response rating, Corn: visual injury
In short: (§1)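 Greenhouse pot test, 10 days. Compound (non-phytotoxic solvent, surfactant) sprayed on soil at seeding or on seedlings at one- to two-leaf stage. Visual injury rated 0–100 against untreated plants.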

ducksalad = assay: Test B flooded paddy test; assay type: in vivo, Heteranthera limosa; settings: 250 g ai/ha, Flood, 13 days, 0 to 100 scale (0 no effect, 100 complete control)
In short: (§2)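 Flooded to 3 cm at treatment time, 2-leaf plants got the test compound applied straight into the paddy water. They then stayed under constant flood in a greenhouse for 13 days. Ratings used a 0 to 100 visual scale.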

foxtail, giant [2] = assay: Test A preemergence; assay type: in vivo, Setaria faberi
In short: as §1

wheat [3] = assay: Test A preemergence; assay type: in vivo, Triticum aestivum
In short: as §1

kochia [4] = assay: Test A postemergence; assay type: in vivo, Bassia scoparia; settings: postemergence, 10 days, 0 to 100 scale (0 no effect, 100 complete control); for Plant response rating, Kochia: visual injury
In short: as §1

ragweed [5] = assay: Test A postemergence; assay type: in vivo, Ambrosia artemisiifolia; settings: postemergence, 10 days, 0 to 100 scale (0 no effect, 100 complete control); for Plant response rating, Ragweed: visual injury
In short: as §1

rice = assay: Test B flooded paddy test; assay type: in vivo, Oryza sativa; settings: 250 g ai/ha, Flood, 13 days, 0 to 100 scale (0 no effect, 100 complete control)
In short: as §2

barnyardgrass = assay: Test B flooded paddy test; assay type: in vivo, Echinochloa crus-galli; settings: 250 g ai/ha, Flood, 13 days, 0 to 100 scale (0 no effect, 100 complete control)
In short: as §2

sedge, umbrella = assay: Test B flooded paddy test; assay type: in vivo, Cyperus difformis; settings: 250 g ai/ha, Flood, 13 days, 0 to 100 scale (0 no effect, 100 complete control)
In short: as §2

pigweed, palmer [6] = assay: Test A preemergence; assay type: in vivo, Amaranthus palmeri
In short: as §1

oat, wild [7] = assay: Test A preemergence; assay type: in vivo, Avena fatua
In short: as §1

ragweed [8] = assay: Test A preemergence; assay type: in vivo, Ambrosia artemisiifolia
In short: as §1

corn [9] = assay: Test A preemergence; assay type: in vivo, Zea mays
In short: as §1

wheat [10] = assay: Test A postemergence; assay type: in vivo, Triticum aestivum; settings: postemergence, 10 days, 0 to 100 scale (0 no effect, 100 complete control); for Plant response rating, Wheat: visual injury
In short: as §1

blackgrass [11] = assay: Test A postemergence; assay type: in vivo, Alopecurus myosuroides
In short: as §1

galium = assay: Test A postemergence; assay type: in vivo, Galium aparine; settings: postemergence, 10 days, visual injury, 0 to 100 scale (0 no effect, 100 complete control)
In short: as §1

horseweed = assay: Test A postemergence; assay type: in vivo, Erigeron canadensis; settings: postemergence, 10 days, 0 to 100 scale (0 no effect, 100 complete control); for Plant response rating, Horseweed: visual injury
In short: as §1

goosegrass [12] = assay: Test A preemergence; assay type: in vivo, Eleusine indica
In short: as §1

kochia [13] = assay: Test A preemergence; assay type: in vivo, Bassia scoparia
In short: as §1

ryegrass, Italian [14] = assay: Test A preemergence; assay type: in vivo, Lolium multiflorum
In short: as §1

foxtail, giant [15] = assay: Test A postemergence; assay type: in vivo, Setaria faberi; settings: postemergence, 10 days, 0 to 100 scale (0 no effect, 100 complete control); for Plant response rating, Foxtail, Giant: visual injury
In short: as §1

goosegrass [16] = assay: Test A postemergence; assay type: in vivo, Eleusine indica; settings: postemergence, 10 days, 0 to 100 scale (0 no effect, 100 complete control); for Plant response rating, Goosegrass: visual injury
In short: as §1

soybean [17] = assay: Test A postemergence; assay type: in vivo, Glycine max; settings: postemergence, 10 days, 0 to 100 scale (0 no effect, 100 complete control); for Plant response rating, Soybean: visual injury
In short: as §1

oat, wild [18] = assay: Test A postemergence; assay type: in vivo, Avena fatua; settings: postemergence, 10 days, 0 to 100 scale (0 no effect, 100 complete control); for Plant response rating, Oat, Wild: visual injury
In short: as §1

ryegrass, Italian [19] = assay: Test A postemergence; assay type: in vivo, Lolium multiflorum; settings: postemergence, 10 days, 0 to 100 scale (0 no effect, 100 complete control); for Plant response rating, Ryegrass, Italian: visual injury
In short: as §1

soybean [20] = assay: Test A preemergence; assay type: in vivo, Glycine max
In short: as §1

pigweed, palmer [21] = assay: Test A postemergence; assay type: in vivo, Amaranthus palmeri; settings: postemergence, 10 days, 0 to 100 scale (0 no effect, 100 complete control); for Plant response rating, Pigweed, Palmer: visual injury
In short: as §1

blackgrass [22] = assay: Test A preemergence; assay type: in vivo, Alopecurus myosuroides; settings: 0 to 100 scale
In short: as §1

[23] = 125 g ai/ha, visual injury after 10 days, 0 to 100 scale, 0 is no effect, 100 is complete control
[24] = 500 g ai/ha, 0 to 100 scale (0 no effect, 100 complete control), 10 days
[25] = 125 g ai/ha, postemergence, 10 days, visual injury, 0 to 100 scale (0 no effect, 100 complete control)

SMILES: CC(C)c1ncn(-c2cccc(C(=O)N3C[C@H](C)Oc4c(Cl)cccc43)c2)n1 [Compound 78]
- Plant response rating, Corn (corn [1]; 125 g ai/ha): 10
- Plant response rating, Corn (corn [1]; 500 g ai/ha): 60
- Plant response rating, Ducksalad (ducksalad): 75
- Plant response rating, Foxtail, Giant (foxtail, giant [2]; [23]): 100
- Plant response rating, Foxtail, Giant (foxtail, giant [2]; [24]): 100
- Plant response rating, Wheat (wheat [3]; [23]): 20
- Plant response rating, Wheat (wheat [3]; [24]): 80
- Plant response rating, Kochia (kochia [4]; 125 g ai/ha): 70
- Plant response rating, Kochia (kochia [4]; 500 g ai/ha): 100
- Plant response rating, Ragweed (ragweed [5]; 500 g ai/ha): 80
- Plant response rating, Rice (rice): 0
- Plant response rating, Barnyardgrass (barnyardgrass): 0
- Plant response rating, Sedge, Umbrella (sedge, umbrella): 0
- Plant response rating, Pigweed, Palmer (pigweed, palmer [6]; [23]): 100
- Plant response rating, Pigweed, Palmer (pigweed, palmer [6]; [24]): 100
- Plant response rating, Oat, Wild (oat, wild [7]; [23]): 80
- Plant response rating, Oat, Wild (oat, wild [7]; [24]): 90
- Plant response rating, Ragweed (ragweed [8]; [23]): 0
- Plant response rating, Ragweed (ragweed [8]; [24]): 90
- Plant response rating, Corn (corn [9]; [23]): 30
- Plant response rating, Corn (corn [9]; [24]): 30
- Plant response rating, Wheat (wheat [10]; 500 g ai/ha): 50
- Plant response rating, Blackgrass (blackgrass [11]; [25]): 50
- Plant response rating, Blackgrass (blackgrass [11]; 500 g ai/ha, Postemergence, 0 to 100 scale): 90
- Plant response rating, Galium (galium; 125 g ai/ha): 100
- Plant response rating, Galium (galium; 500 g ai/ha): 100
- Plant response rating, Horseweed (horseweed; 125 g ai/ha): 0
- Plant response rating, Horseweed (horseweed; 500 g ai/ha): 0
- Plant response rating, Goosegrass (goosegrass [12]; [23]): 90
- Plant response rating, Goosegrass (goosegrass [12]; [24]): 100
- Plant response rating, Kochia (kochia [13]; [23]): 90
- Plant response rating, Kochia (kochia [13]; [24]): 100
- Plant response rating, Ryegrass, Italian (ryegrass, Italian [14]; [23]): 90
- Plant response rating, Ryegrass, Italian (ryegrass, Italian [14]; [24]): 100
- Plant response rating, Foxtail, Giant (foxtail, giant [15]; 125 g ai/ha): 50
- Plant response rating, Foxtail, Giant (foxtail, giant [15]; 500 g ai/ha): 90
- Plant response rating, Goosegrass (goosegrass [16]; 125 g ai/ha): 40
- Plant response rating, Goosegrass (goosegrass [16]; 500 g ai/ha): 80
- Plant response rating, Soybean (soybean [17]; 500 g ai/ha): 100
- Plant response rating, Oat, Wild (oat, wild [18]; 500 g ai/ha): 90
- Plant response rating, Ryegrass, Italian (ryegrass, Italian [19]; 500 g ai/ha): 100
- Plant response rating, Soybean (soybean [20]; [23]): 0
- Plant response rating, Soybean (soybean [20]; [24]): 100
- Plant response rating, Pigweed, Palmer (pigweed, palmer [21]; 500 g ai/ha): 90

SMILES: Cc1ccc(-n2cnc(Br)n2)cc1C(=O)N1C[C@H](C)Oc2c(Cl)cccc21 [Compound 62]
- Corn plant response rating (corn [1]; 31 g ai/ha): 10
- Plant response rating, Corn (corn [1]; 125 g ai/ha): 10
- Plant response rating, Ducksalad (ducksalad): 0
- Plant response rating, Blackgrass (blackgrass [22]; 31 g ai/ha): 0
- Plant response rating, Blackgrass (blackgrass [22]; 125 g ai/ha, visual injury after 10 days, 0 is no effect, 100 is complete control): 40
- Plant response rating, Foxtail, Giant (foxtail, giant [2]; 31 g ai/ha, 0 to 100 scale): 20
- Plant response rating, Foxtail, Giant (foxtail, giant [2]; [23]): 90
- Plant response rating, Wheat (wheat [3]; 31 g ai/ha, 0 to 100 scale): 0
- Plant response rating, Wheat (wheat [3]; [23]): 0
- Kochia plant response rating (kochia [4]; 31 g ai/ha): 80
- Plant response rating, Kochia (kochia [4]; 125 g ai/ha): 90
- Ragweed plant response rating (ragweed [5]; 31 g ai/ha): 10
- Plant response rating, Ragweed (ragweed [5]; 125 g ai/ha): 20
- Plant response rating, Rice (rice): 0
- Plant response rating, Barnyardgrass (barnyardgrass): 0
- Plant response rating, Sedge, Umbrella (sedge, umbrella): 0
- Plant response rating, Pigweed, Palmer (pigweed, palmer [6]; 31 g ai/ha, 0 to 100 scale): 70
- Plant response rating, Pigweed, Palmer (pigweed, palmer [6]; [23]): 90
- Plant response rating, Oat, Wild (oat, wild [7]; 31 g ai/ha, 0 to 100 scale): 0
- Plant response rating, Oat, Wild (oat, wild [7]; [23]): 0
- Plant response rating, Ragweed (ragweed [8]; 31 g ai/ha, 0 to 100 scale): 0
- Plant response rating, Ragweed (ragweed [8]; [23]): 20
- Plant response rating, Corn (corn [9]; 31 g ai/ha, 0 to 100 scale): 0
- Plant response rating, Corn (corn [9]; [23]): 0
- Wheat plant response rating (wheat [10]; 31 g ai/ha): 10
- Plant response rating, Wheat (wheat [10]; 125 g ai/ha): 10
- Blackgrass plant response rating (blackgrass [11]; 31 g ai/ha, postemergence, 10 days, 0 to 100 scale (0 no effect, 100 complete control)): 40
- Plant response rating, Blackgrass (blackgrass [11]; [25]): 50
- Horseweed plant response rating (horseweed; 31 g ai/ha): 0
- Plant response rating, Horseweed (horseweed; 125 g ai/ha): 0
- Plant response rating, Goosegrass (goosegrass [12]; 31 g ai/ha, 0 to 100 scale): 70
- Plant response rating, Goosegrass (goosegrass [12]; [23]): 100
- Plant response rating, Kochia (kochia [13]; 31 g ai/ha, 0 to 100 scale): 10
- Plant response rating, Kochia (kochia [13]; [23]): 80
- Plant response rating, Ryegrass, Italian (ryegrass, Italian [14]; 31 g ai/ha, 0 to 100 scale): 0
- Plant response rating, Ryegrass, Italian (ryegrass, Italian [14]; [23]): 70
- Foxtail, Giant plant response rating (foxtail, giant [15]; 31 g ai/ha): 20
- Plant response rating, Foxtail, Giant (foxtail, giant [15]; 125 g ai/ha): 90
- Goosegrass plant response rating (goosegrass [16]; 31 g ai/ha): 10
- Plant response rating, Goosegrass (goosegrass [16]; 125 g ai/ha): 20
- Soybean plant response rating (soybean [17]; 31 g ai/ha): 100
- Plant response rating, Soybean (soybean [17]; 125 g ai/ha): 100
- Oat, Wild plant response rating (oat, wild [18]; 31 g ai/ha): 0
- Plant response rating, Oat, Wild (oat, wild [18]; 125 g ai/ha): 20
- Ryegrass, Italian plant response rating (ryegrass, Italian [19]; 31 g ai/ha): 0
- Plant response rating, Ryegrass, Italian (ryegrass, Italian [19]; 125 g ai/ha): 40
- Plant response rating, Soybean (soybean [20]; 31 g ai/ha, 0 to 100 scale): 0
- Plant response rating, Soybean (soybean [20]; [23]): 0
- Pigweed, Palmer plant response rating (pigweed, palmer [21]; 31 g ai/ha): 40
- Plant response rating, Pigweed, Palmer (pigweed, palmer [21]; 125 g ai/ha): 50
